{"source": "patent US9187468B2", "about": "“Topical ocular analgesic agents” (Novartis AG, priority 2013, dated 2015)", "key": {"[1]": {"test_system": "formalin-induced blinking in rats", "assay": "Formalin blink test (topical ocular analgesia)", "type": "in vivo", "conditions": "rat", "method": "Formalin was prepared at 0.1% final in 0.9% saline from a stock of 10% neutral buffered formalin (Sigma-Aldrich, St. Louis, Mo.). […] The structure of Compound A is.\nAll compounds were formulated in a 10% hydroxypropyl-β-cyclodextrin (HPβCD) 1×PBS vehicle. Compounds were prepared as 1% stock solutions in absolute ethanol. An appropriate amount of the stock solution was transferred to a glass vial from which the solvent was evaporated, then the compound was re-suspended in appropriate volumes of vehicle and ball-milled overnight at 4° C. All compounds were tested at 0.01%, 0.1%, 0.3%, and 1% w/v, unless otherwise noted. Alcaine® (Alcon Laboratories, Fort Worth, Tex.) was used as a reference compound.\nRats were dosed with 5 μL, of formalin vehicle (0.9% sterile saline) in OS eye. After a 5-second acclimation period, blinks were counted for one minute. Test compound or vehicle was dosed (5 μL) on OD eye. At 5 minutes after test compound treatment (unless otherwise noted), 0.1% formalin was dosed in the OD eye. Blinks were counted in the same manner as the OS eye.\nThe efficacy data for these compounds are plotted in FIGS. 1, 3, 4, and 5, with % inhibition of formalin-induced blink rate indicated above the bar for each tested concentration."}, "[2]": {"test_system": "nylon fiber ocular surface touching-induced blinking in rats", "assay": "Cochet-Bonnet esthesiometry test (anesthetic activity)", "type": "in vivo", "conditions": "rat, topical ocular; for anesthesia in Cochet-Bonnet esthesiometry test: concentration range that afforded efficacious analgesia in the formalin blink test", "method": "Cochet-Bonnet Esthesiometry Test\nFor the Cochet-Bonnet esthesiometry test that measures anesthetic activity, whiskers were trimmed from test animals or vehicle animals. OD eye of animal was dosed with 5 μL of test compound or vehicle. The animal was restrained in a clear plastic cone (DecapiCone®, Alcon Laboratories, Fort Worth, Tex.) which was trimmed as necessary to allow access to the OD eye. Five minutes after application of test compound, a Cochet-Bonnet esthesiometer, with a nylon monofilament diameter of 0.12 mm and length of 40 mm (0.8 g/mm^2), was applied perpendicularly to the central cornea of the OD eye 10 times. This test was performed three times on each animal within 2 minutes. Data were expressed as the mean number of blinks elicited from 10 stimuli."}, "[3]": {"test_system": "rat spinal ligation model of neuropathic pain", "conditions": "orally dosed at 10 mg/kg, comparators at 3-10 times higher doses; cited from earlier work"}}, "data": [{"smiles": "Fc1cccc(Cn2ccc3c(OC4CCN(Cc5cscn5)CC4)ncnc32)c1F", "note": "[Compound C]", "values": [{"measurement": "dose dependence of analgesic efficacy", "setting": "[1]; 0.01-0.2% w/v", "value": "dose-related increase in efficacy"}, {"measurement": "maximum efficacy (% inhibition of formalin-induced blink rate)", "setting": "[1]; top tested dose of 0.01-0.2% w/v range", "value": 61, "unit": "%"}, {"measurement": "anesthetic effect (touch-induced blinking)", "setting": "[2]; 0.1% and 0.2% doses", "value": "elicited significant anesthesia"}, {"measurement": "anesthesia in Cochet-Bonnet esthesiometry test", "setting": "[2]", "value": "profound anesthesia"}]}, {"smiles": "NC(=O)c1nc(-c2cccc(-c3ccccc3OC(F)(F)F)c2)cs1", "note": "[Compound B, 4-(2′-(trifluoromethoxy)-[1,1′-biphenyl]-3-yl)thiazole-2-carboxamide]", "values": [{"measurement": "% reduction of formalin-induced blink rate", "setting": "[1]; 0.01% w/v dose", "value": "no effect"}, {"measurement": "% reduction of formalin-induced blink rate", "setting": "[1]; 0.1% w/v dose", "value": "no effect"}, {"measurement": "% reduction of formalin-induced blink rate", "setting": "[1]; 0.3% w/v dose", "value": "~40", "unit": "%"}, {"measurement": "% reduction of formalin-induced blink rate", "setting": "[1]; 1% w/v dose", "value": "~40", "unit": "%"}, {"measurement": "therapeutic efficacy vs mexiletene, lamotrigene and carbamazepine", "setting": "[3]", "value": "significantly more therapeutically efficacious"}]}, {"smiles": "CCCCCN1C(=O)C2(COc3cc4c(cc32)OCO4)c2ccccc21", "note": "(stereo not drawn) [Compound A, 1′-pentyl-6H-spiro[[1,3]dioxolo[4,5-f]benzofuran-7,3′-indolin]-2′-one]", "values": [{"measurement": "% reduction of formalin-induced blink rate", "setting": "[1]; 0.1% w/v dose", "value": 27, "unit": "%"}]}, {"smiles": "CC(=O)Nc1cccc(Nc2ncnc(N3CCC(OCc4ccc(OC(F)(F)F)cc4)CC3)n2)c1C", "note": "[Compound 1]", "values": [{"measurement": "maximum efficacy as topical ocular analgesic compared to Compounds A and B", "setting": "[1]; FIG. 1 vs FIGS. 3 and 4", "value": "more efficacious"}, {"measurement": "potency as topical ocular analgesic compared to Compounds A and B", "setting": "[1]; FIG. 1 vs FIGS. 3 and 4", "value": "significantly more potent"}, {"measurement": "% reduction of formalin-induced blink rate vs vehicle", "setting": "[1]; drug concentrations ≧0.05% w/v (tested 0.01%-0.3% w/v)", "value": "> 50", "unit": "%"}, {"measurement": "anesthesia in Cochet-Bonnet esthesiometry test", "setting": "[2]", "value": "did not elicit observable anesthesia"}, {"measurement": "anesthetic effect (touch-induced blinking) compared to vehicle", "setting": "[2]; drug concentrations up to 0.3% w/v (0.05-0.3%)", "value": "did not elicit a statistically significant anesthetic effect"}]}]}
